Where two headings read alike, the source gives them in different places.
Columns and labels:
[1] = Metabolic stability in liver microsomes (NADPH); conditions: Dog; 0.5 mg/mL liver microsomes, NADPH, 37°C
[2] = Metabolic stability in liver microsomes (NADPH); conditions: Rat; 0.5 mg/mL liver microsomes, NADPH, 37°C
[3] = test system: AGS; assay: Cell proliferation experiment (CellTiter-Glo); type: cell-based; conditions: read-out: IC50(nM) AGS
[4] = Metabolic stability in liver microsomes (NADPH); conditions: Human; 0.5 mg/mL liver microsomes, NADPH, 37°C
[5] = test system: SW620; assay: Cell proliferation experiment (CellTiter-Glo); type: cell-based; conditions: read-out: IC50(nM) SW620
[6] = Metabolic stability in liver microsomes (NADPH); conditions: Mouse; 0.5 mg/mL liver microsomes, NADPH, 37°C
[7] = PK study in ICR mice (whole blood); type: in vivo; conditions: Female ICR mice, IV 1 mg/kg
Protocol: Example 8 PK Study of Compound in ICR Mice (whole blood)
The compound was mixed with the vehicle (10% DMSO / 5% Solutol HS 15 / 85% saline), vortexed, and sonicated to prepare a clear solution at 0.2 mg/mL. Female ICR mice aged 6 to 7 weeks (non-fasted) were intravenously administered the compound. Whole blood was collected at specified time points. Drug concentration was analyzed by LC-MS/MS, and pharmacokinetic parameters were calculated using Phoenix WinNonlin software (Pharsight Corporation, USA). Table 11 Mouse PK Data for Intravenous Compound Monotherapy

[8] = target: T1, KRAS G12D (Homo sapiens, UniProt P01116, G12D)
[9] = in vitro; conditions: dog, microsomes
[10] = in vitro; conditions: mouse, microsomes
[11] = test system: PK59; assay: Cell proliferation experiment (CellTiter-Glo); type: cell-based; conditions: PK-59; PK59, KRAS mutation type G12D; 96 h incubation
[12] = test system: H1975; assay: Cell proliferation experiment (CellTiter-Glo); type: cell-based; conditions: Homo sapiens, NCI-H1975; H1975, KRAS WT; 96 h incubation
[13] = in vitro; conditions: rat, microsomes
[14] = test system: HCT116; assay: Cell proliferation experiment (CellTiter-Glo); type: cell-based; conditions: Homo sapiens, HCT-116; HCT116, KRAS mutation type G13D; 96 h incubation
[15] = target: T1, KRAS G12D; assay: cell-based; conditions: AGS
[16] = in vitro; conditions: human, microsomes
[17] = PK study in ICR mice (plasma); type: in vivo; conditions: Female ICR mice, IV 1 mg/kg; for AUC(0-t) / C0 / half-life: mouse
Protocol: Example 9 PK Study of Compound in ICR Mice (plasma)
The compound was mixed with the vehicle (10% DMSO / 5% Solutol HS 15 / 85% saline), vortexed, and sonicated to prepare a clear solution at 0.2 mg/mL. Female ICR mice aged 6 to 7 weeks (non-fasted) were intravenously administered the compound. Plasma was collected at specified time points. Drug concentration was analyzed by LC-MS/MS, and pharmacokinetic parameters were calculated using Phoenix WinNonlin software (Pharsight Corporation, USA). Table 12 Mouse PK Data for Intravenous Compound Monotherapy

[18] = PK study in Beagle dogs (plasma); type: in vivo; conditions: IV 1 mg/kg; for AUC(0-t) / C0 / half-life: dog
Protocol: Example 10 PK Study of Compound 135 in Beagle Dogs
Compound 135 was mixed with the vehicle (10% DMSO / 5% Solutol HS 15 / 85% saline), vortexed, and sonicated to prepare a clear solution at 0.5 mg/mL. Beagle dogs weighing approximately 10 kg (equal number of males and females, non-fasted) were intravenously administered the compound. Plasma was collected at specified time points. Drug concentration was analyzed by LC-MS/MS, and pharmacokinetic parameters were calculated using Phoenix WinNonlin software (Pharsight Corporation, USA). Table 13 Beagle Dog PK Data for Intravenous Compound Monotherapy

[19] = test system: H358; assay: Cell proliferation experiment (CellTiter-Glo); type: cell-based; conditions: Homo sapiens, NCI-H358; H358, KRAS mutation type G12C; 96 h incubation
[20] = test system: PK-59 cells; assay: Anti-tumor effects in a human pancreatic cancer xenograft model carrying KRAS^G12D mutation; type: in vivo, BALB/c Nude Crlj mice; conditions: PK-59 xenograft; for TGI After 4 Weeks of Administration (%): tail vein
[21] = target: T2, KRAS G12V (Homo sapiens, UniProt P01116, G12V); assay: Western blot study of KRAS degradation in SW620 cells; type: cell-based; conditions: 3 h incubation
T2 construct: endogenous in cells; host or cells: SW620

[22] = target: T3, KRAS G13D (Homo sapiens, UniProt P01116, G13D); assay: Western blot study of KRAS degradation in HCT116 cells; type: cell-based; conditions: 3 h incubation
T3 construct: endogenous in cells; host or cells: HCT116

[23] = target: T1, KRAS G12D; assay: Western blot study of KRAS degradation in AGS cells; type: cell-based; design: endogenous in cells; host or cells: AGS; conditions: 3 h incubation

T1 sequence (P01116 1-188 isoform P01116-2 G12D): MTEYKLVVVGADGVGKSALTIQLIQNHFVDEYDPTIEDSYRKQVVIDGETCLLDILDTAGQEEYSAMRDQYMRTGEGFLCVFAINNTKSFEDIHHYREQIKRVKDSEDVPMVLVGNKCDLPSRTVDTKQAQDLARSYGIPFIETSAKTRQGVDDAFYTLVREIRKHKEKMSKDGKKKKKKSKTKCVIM
T2 sequence (P01116 1-188 isoform P01116-2 G12V): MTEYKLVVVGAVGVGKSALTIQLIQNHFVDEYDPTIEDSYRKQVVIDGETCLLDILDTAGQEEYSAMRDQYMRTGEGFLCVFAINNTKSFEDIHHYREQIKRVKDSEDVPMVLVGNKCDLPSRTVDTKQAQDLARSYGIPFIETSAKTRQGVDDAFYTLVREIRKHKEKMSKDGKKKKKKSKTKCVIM
T3 sequence (P01116 1-188 isoform P01116-2 G13D): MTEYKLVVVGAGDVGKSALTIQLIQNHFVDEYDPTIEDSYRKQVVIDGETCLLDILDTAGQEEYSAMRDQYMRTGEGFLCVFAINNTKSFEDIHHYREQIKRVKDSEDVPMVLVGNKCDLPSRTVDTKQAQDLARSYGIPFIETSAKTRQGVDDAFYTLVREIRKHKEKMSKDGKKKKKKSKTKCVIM

| Structure (SMILES) | DC50 [8] [µM] | microsomal CLint [9] [µL/min/mg] | microsomal CLint [10] [µL/min/mg] | IC50 [11] [nM] | IC50 [12] [nM] | IC50 ([3]; Homo sapiens, AGS, 96 h) [nM] | microsomal CLint [13] [µL/min/mg] | IC50 ([5]; Homo sapiens, SW-620, 96 h) [nM] | IC50 [14] [nM] | Dmax [15] [%] | microsomal CLint [16] [µL/min/mg] | Cl_obs [17] [mL/min/kg] | Vss_obs [17] [L/kg] | AUC(0-t) [17] [ng·h/mL] | C0 [17] [ng/mL] | half-life [17] [h] | Cl_obs [18] [mL/min/kg] | Vss_obs [18] [L/kg] | AUC(0-t) [18] [ng·h/mL] | C0 [18] [ng/mL] | also measured |
| --- | --- | --- | --- | --- | --- | --- | --- | --- | --- | --- | --- | --- | --- | --- | --- | --- | --- | --- | --- | --- | --- |
| CCc1c(F)ccc2cc(O)cc(-c3ncc4c(N5CCC[C@@](C)(O)C5)nc(OCC5(CN6CCC7(CC6)CC(c6cn([C@H](C(=O)N8C[C@H](O)C[C@H]8C(=O)N[C@@H](C)c8ccc(-c9scnc9C)cc8)C(C)C)nn6)C7)CC5)nc4c3F)c12 [Compound 73, (2S,4R)-1-((S)-2-(4-(7-((1-((7-(8-ethyl-7-fluoro-3-hydroxynaphthalen-1-yl)-8-fluoro-4-(((R)-3-hydroxy-3-methylpiperidin-1-yl)pyrido[4,3-d]pyrimidin-2-yl)oxy)methyl)cyclopropyl)methyl)-7-azaspiro[3.5]nonan-2-yl)-1H-1,2,3-triazol-1-yl)-3-methylbutanoyl)-4-hydroxy-N-((S)-1-(4-(4-methylthiazol-5-yl)phenyl)ethyl)pyrrolidine-2-carboxamide] | 0.017 |  |  |  |  |  |  |  |  |  |  |  |  |  |  |  |  |  |  |  | The in vitro intrinsic clearance in liver microsomes (CLint, in vitro, µL/min/mg protein) Dog [1]: 18.9 µL/min/mg protein; The in vitro intrinsic clearance in liver microsomes (CLint, in vitro, µL/min/mg protein) Rat [2]: 9.8 µL/min/mg protein; IC50 [3]: 22 nM; The in vitro intrinsic clearance in liver microsomes (CLint, in vitro, µL/min/mg protein) Human [4]: 13.8 µL/min/mg protein; IC50 [5]: 81 nM; The in vitro intrinsic clearance in liver microsomes (CLint, in vitro, µL/min/mg protein) Mouse [6]: 7.1 µL/min/mg protein; AUClast [7]: 2051 ng·h/mL; C0 [7]: 3008 ng/mL; t1/2 [7]: 5.07 h; Cl_obs ([7]; 1 mg/kg): 7.97 mL/min/kg; Vss_obs ([7]; 1 mg/kg): 1.91 L/kg; Dmax (%) [8]: 95% |
| CCc1c(F)ccc2cc(O)cc(-c3ncc4c(N5CCC[C@@](C)(O)C5)nc(OCC5(CN6CCC7(CC6)CN(c6ccc(-c8cn([C@H](C(=O)N9C[C@H](O)C[C@H]9C(=O)N[C@@H](C)c9ccc(-c%10scnc%10C)cc9)C(C)C)nn8)cn6)C7)CC5)nc4c3F)c12 [Compound 118] | 0.011 | 17.2 | 11.4 | 12.2 | > 10000 | 13 | 3.4 | 26 | 37 | 95 | 21.3 |  |  |  |  |  |  |  |  |  |  |
| CCc1c(F)ccc2cc(O)cc(-c3ncc4c(N5CCC[C@@](C)(O)C5)nc(OCC5(CN6CCC(Oc7ccc(-c8cn([C@H](C(=O)N9C[C@H](O)C[C@H]9C(=O)N[C@@H](C)c9ccc(-c%10scnc%10C)cc9)C(C)C)nn8)cn7)CC6)CC5)nc4c3F)c12 [Compound 135] | 0.014 | 26.9 | 13.2 | 14.7 | > 10000 | 5.2 | 1.5 | 39 | 33 | 95 | 11.3 | 5.80 | 1.61 | 2750 | 5840 | 6.92 | 5.74 | 2.23 | 2780 | 11000 | half-life [18]: 21.4 h; IC50 [19]: 7.3 nM; TGI After 4 Weeks of Administration (%) ([20]; 1 mg/kg, QW): 70%; TGI After 4 Weeks of Administration (%) ([20]; 3 mg/kg, QW): 92%; TGI After 4 Weeks of Administration (%) ([20]; 10 mg/kg, QW): 106%; TGI After 4 Weeks of Administration (%) ([20]; 20 mg/kg, Q2W): 101%; TGI at 20 mg/kg once every two weeks versus 10 mg/kg once weekly ([20]; 4 weeks of administration): comparable TGI |
| CCc1c(F)ccc2cc(O)cc(-c3ncc4c(N5CCC[C@@](C)(O)C5)nc(OCC5(CN6CCN(c7ccc(-c8cn([C@H](C(=O)N9C[C@H](O)C[C@H]9C(=O)N[C@@H](C)c9ccc(-c%10scnc%10C)cc9)C(C)C)nn8)cn7)CC6)CC5)nc4c3F)c12 [Compound 142] | 0.0063 | 14.2 | 17.7 |  |  | 10 |  |  |  | 95 | 11.1 | 7.32 | 0.854 | 2300 | 9460 | 4.1 |  |  |  |  | The in vitro intrinsic clearance in liver microsomes (CLint, in vitro, µL/min/mg protein) Rat: 0.0 µL/min/mg protein |
| CCc1c(F)ccc2cc(O)cc(-c3ncc4c(N5CCC[C@@](C)(O)C5)nc(OCC5(CN6CCC(Oc7cnc(-c8cn([C@H](C(=O)N9C[C@H](O)C[C@H]9C(=O)N[C@@H](C)c9ccc(-c%10scnc%10C)cc9)C(C)C)nn8)cn7)CC6)CC5)nc4c3F)c12 [Compound 144] | 0.0011 | 7.4 | 10.9 | 4.4 | > 10000 | 3 | 6.2 | 8.4 | 13 | 95 | 18.8 | 5.81 | 1.54 | 2730 | 5530 | 9.34 | 6.19 | 3.46 | 2520 | 9890 | KRAS G12V protein degradation (Western blot, Fig. 5) [21]: effectively degraded; half-life [18]: 20.5 h; IC50 [19]: 5 nM; KRAS G13D protein degradation (Western blot, Fig. 5) [22]: effectively degraded; KRAS G12D protein degradation (Western blot, Fig. 5) [23]: effectively degraded; TGI After 4 Weeks of Administration (%) ([20]; 1 mg/kg, QW): 82%; TGI After 4 Weeks of Administration (%) ([20]; 3 mg/kg, QW): 93%; TGI After 4 Weeks of Administration (%) ([20]; 10 mg/kg, QW): 113% |
